From US10987389B2, “Anti-tumor traditional Chinese medicine microbial fermentation preparation and a preparation method and application thereof” (priority 2014, dated 2021)
Where “and” joins values, the source holds several entries; their conditions need not be identical. Equal entries are not always repeated.

Assays:
Format in all cases: in vivo
[1] = system: mouse transplantable Heps solid tumor; assay: Effects of oral administration of the compound powder on mouse Heps solid tumor; conditions: for Inhibition rate / Tumor weight (g) (X ± SD): mouse Heps solid tumor; for Weight (g) Beginning: body weight at beginning; for Weight (g) Beginning / Weight (g) End: Heps; for Weight (g) End: body weight at end
Experimental: (§1) A suspension of 10% was prepared from the traditional Chinese medicine compound powder provided by the present invention and then stored in a refrigerator. The suspension would be shaken up before use. Tumor strain: Heps, S180 and ESC were all commercially available products. Animal: Kunming mice provided by the animal laboratories of Shenyang Pharmaceutical University and China Pharmaceutical University. Method: referring to the following literatures: Literature 1: chief editor Xu Shuyun. Methodology of Pharmacological Experiment, Beijing: People's Medical Publishing House 1982, 1115-1125. Literature 2: China Academic Conference on Tumor Pharmacology and Chemotherapy: In-vivo Efficacy Test Procedures of Anticancer Drugs, internal data. 1989. 1. Effects of the Traditional Chinese Medicine Compound Powder on Heps Solid Tumor […]

[2] = system: mouse transplantable S180 solid tumor; assay: Effects of oral administration of the compound powder on mouse S180 solid tumor; conditions: Dosage 0.2 ml/10 g × 9
Experimental: as §1, with “1989. 2.” for “1989. 1.”, “on S180” for “on Heps”

[3] = system: mouse Ehrlich Ascites Cancer (EAC) solid tumor; assay: Effects of oral administration of the compound powder on mouse Ehrlich Ascites Cancer (EAC) solid tumor; conditions: Dosage 0.2 ml/10 g × 9
Experimental: as §1, with “1989. 3.” for “1989. 1.”, “on ESC” for “on Heps”

With `O=c1[nH]cc(F)c(=O)[nH]1` [0.15% 5-Fu, 5-Fu] the Inhibition rate ([1]; Dosage 0.1 ml/10 g × 8) was 65.75% and 56.62%, the “Tumor weight (g) (X ± SD)” value ([1]; Dosage 0.1 ml/10 g × 8) was 1.12 ± 0.85 g and 0.59 ± 0.27 g and the Inhibition rate ([1]; Dosage 0.1 ml/10 g × 9) was 58.55%. For the same molecule, the “Tumor weight (g) (X ± SD)” value ([1]; Dosage 0.1 ml/10 g × 9) was 1.05 ± 0.54 g, the “Weight (g) Beginning” value ([1]; Dosage 0.1 ml/10 g × 8) was 21.30 g and 18.95 g and the “Weight (g) Beginning” value ([1]; Dosage 0.1 ml/10 g × 9) was 21.00 g. For the same molecule, the “Weight (g) End” value ([1]; Dosage 0.1 ml/10 g × 8) was 24.80 g and 20.22 g, the “Weight (g) End” value ([1]; Dosage 0.1 ml/10 g × 9) was 25.86 g and the Inhibition rate ([2]; mouse S180 solid tumor) was 61.80% and 60.53% and 42.62%. For the same molecule, the “Tumor weight (g) (X ± SD)” value ([2]; mouse S180 solid tumor) was 1.36 ± 0.44 g and 1.33 ± 0.31 g and 1.87 ± 1.03 g, the “Weight (g) Beginning” value ([2]; body weight at beginning, S180) was 21.80 g and 21.30 g and 20.78 g and the “Weight (g) End” value ([2]; body weight at end, S180) was 24.70 g and 23.60 g and 20.00 g. The Inhibition rate ([3]; mouse EAC solid tumor) was 64.85% and 66.85% and 65.36%, the “Tumor weight (g) (X ± SD)” value ([3]; mouse EAC solid tumor) was 1.23 ± 0.43 g and 1.31 ± 0.65 g and 1.33 ± 0.63 g and the “Weight (g) Beginning” value ([3]; body weight at beginning, EAC) was 20.90 g and 21.45 g and 20.85 g. The “Weight (g) End” value ([3]; body weight at end, EAC) was 26.80 g and 22.20 g and 26.90 g.
